In general, mortality refers to the percentage killed. High values mean fewer survivors, low ones more survivors.

This assay concerns Tetranychus Urticae (Two-Spotted Spider Mite). In words: Tetranychus urticae (two-spotted spider mite): feeding/contact activity. It counts as in vivo. To be noted: foliar, 192 h, application rate of 200 ppm, bean leaf discs sprayed, mixed population (mobile stages), 8 days after infestation. How it is done: Example B1: Tetranychus Urticae (Two-Spotted Spider Mite): Feeding/Contact Activity
Bean leaf discs on agar in 24-well microtiter plates were sprayed with aqueous test solutions prepared from 10'000 ppm DMSO stock solutions. After drying the leaf discs were infested with a mite population of mixed ages. The samples were assessed for mortality on mixed population (mobile stages) 8 days after infestation.
The compound `CNS(=O)(=O)C1CCN(C(=O)c2cc(C#N)c(OCc3cc(C(F)(F)F)ccc3F)nc2C(F)(F)F)CC1` [Compound P1.1, 1-[5-cyano-6-[[2-fluoro-5-(trifluoromethyl)phenyl]methoxy]-2-(trifluoromethyl)pyridine-3-carbonyl]-N-methyl-piperidine-4-sulfonamide] returned a mortality at 200 ppm not below 80%. `CN(C)S(=O)(=O)C1CCN(C(=O)c2cc(C#N)c(OCc3ccc4c(c3)OC(F)(F)O4)nc2C(F)(F)F)CC1` [Compound P1.24, 1-[5-Cyano-6-[(2,2-difluoro-1,3-benzodioxol-5-yl)methoxy]-2-(trifluoromethyl)pyridine-3-carbonyl]-N,N-dimethyl-piperidine-4-sulfonamide] returned a mortality at 200 ppm not below 80%. The figure for `CN(C)C(=O)CC1CCN(C(=O)c2cc(C#N)c(OCc3cc(C(F)(F)F)ccc3F)nc2C(F)(F)F)CC1` [Compound P1.37, 2-[1-[5-Cyano-6-[[2-fluoro-5-(trifluoromethyl)phenyl]methoxy]-2-(trifluoromethyl)pyridine-3-carbonyl]-4-piperidyl]-N,N-dimethyl-acetamide] is not below 80%.

In turn, `CN(C)C(=O)CN1CCN(C(=O)c2cc(C#N)c(OCc3cc(C(F)(F)F)ccc3F)nc2C(F)(F)F)CC1` [Compound P2.6, 2-[4-[5-Cyano-6-[[2-fluoro-5-(trifluoromethyl)phenyl]methoxy]-2-(trifluoromethyl)pyridine-3-carbonyl]piperazin-1-yl]-N,N-dimethyl-acetamide] gave a mortality at 200 ppm not below 80%.

These data come from patent US20240383873A1, “PESTICIDALLY ACTIVE CYCLIC AMINE COMPOUNDS” (SYNGENTA CROP PROTECTION AG, priority 2021, published 2024).
